The values that follow come from US20140051679A1, “KINASE INHIBITORS AND METHOD OF TREATING CANCER WITH SAME” (UNIVERISTY HEALTH NETWORKS, priority 2011, published 2014).

For assay [1], the target named is T1, human TTK (Homo sapiens, UniProt P33981).
T1 construct: amino terminal GST fusion of full length human TTK; purchased Invitrogen
T1 sequence (P33981 1-857): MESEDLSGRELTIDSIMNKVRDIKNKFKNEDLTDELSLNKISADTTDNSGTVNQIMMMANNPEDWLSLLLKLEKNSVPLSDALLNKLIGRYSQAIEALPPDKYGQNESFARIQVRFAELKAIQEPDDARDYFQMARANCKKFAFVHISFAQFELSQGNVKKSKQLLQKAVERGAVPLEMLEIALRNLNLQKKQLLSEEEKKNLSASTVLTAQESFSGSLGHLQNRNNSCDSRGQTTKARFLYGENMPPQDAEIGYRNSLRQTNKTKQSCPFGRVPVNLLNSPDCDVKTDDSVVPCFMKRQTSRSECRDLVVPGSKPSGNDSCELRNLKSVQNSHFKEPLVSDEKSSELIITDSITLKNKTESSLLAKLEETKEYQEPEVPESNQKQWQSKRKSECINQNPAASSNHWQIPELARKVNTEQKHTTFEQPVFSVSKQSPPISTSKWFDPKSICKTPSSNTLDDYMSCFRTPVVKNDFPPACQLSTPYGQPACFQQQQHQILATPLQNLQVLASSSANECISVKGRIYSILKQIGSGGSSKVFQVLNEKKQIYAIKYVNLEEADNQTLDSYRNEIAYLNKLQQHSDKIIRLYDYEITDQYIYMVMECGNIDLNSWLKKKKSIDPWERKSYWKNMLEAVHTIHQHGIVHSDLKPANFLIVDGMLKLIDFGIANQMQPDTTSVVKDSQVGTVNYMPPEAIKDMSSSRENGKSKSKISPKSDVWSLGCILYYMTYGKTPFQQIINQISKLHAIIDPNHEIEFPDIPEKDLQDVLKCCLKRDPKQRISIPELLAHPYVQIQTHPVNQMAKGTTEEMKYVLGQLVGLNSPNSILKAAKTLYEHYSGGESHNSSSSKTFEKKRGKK
As to the kind of experiment: TTK inhibition assay (indirect ELISA). Type of assay: biochemical. The following applies: GST-TTK 0.68 nM, 16 μM ATP; read-out: IC50 Ranges TTK. For orientation: An ELISA detects its analyte on a solid surface through an enzyme-linked reagent.

Assay [2] deals with T2, human PLK4 (Homo sapiens, UniProt O00444).
T2 construct: amino terminal GST fusion of residues 1-391 of human PLK4; made in house; host or cells: E. coli
T2 sequence (O00444 1-391): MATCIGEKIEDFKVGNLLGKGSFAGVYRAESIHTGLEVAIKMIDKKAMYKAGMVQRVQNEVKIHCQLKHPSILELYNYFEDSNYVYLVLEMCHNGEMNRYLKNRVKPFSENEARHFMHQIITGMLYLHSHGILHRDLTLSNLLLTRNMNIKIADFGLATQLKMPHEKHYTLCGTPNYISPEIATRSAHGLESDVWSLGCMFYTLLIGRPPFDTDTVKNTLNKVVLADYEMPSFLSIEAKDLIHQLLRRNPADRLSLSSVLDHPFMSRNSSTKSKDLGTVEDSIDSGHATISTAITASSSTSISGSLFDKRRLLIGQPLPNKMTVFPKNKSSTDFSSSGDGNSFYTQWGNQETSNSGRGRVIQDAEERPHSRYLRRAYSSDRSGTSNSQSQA
Put plainly: PLK4 inhibition assay (indirect ELISA). It counts as biochemical. The following applies: GST-PLK4 4 nM, 15 μM ATP; read-out: IC50 Ranges PLK4. The gist of the method: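 Dephosphorylated GST-tagged human PLK4 (residues 1-391, E. coli), 4 nM, preincubated 15 min with compound, then reacted 30 min with 15 μM ATP on MBP-coated plates (50 mM HEPES pH 7.5, 10 mM MgCl2, 0.01% Brij 35). Phospho-MBP detected by antibody ELISA at 450 nm. Tested at 10 μM or 10-point titrations; IC50 from 4-parameter logistic fit.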

In assay [3] the test system is Colon tumor initiating cells (TICs), 12 colon. Put plainly: Colon tumor-initiating cell growth inhibition (Alamar Blue). It counts as cell-based. The settings on record: 216 h, 9 days, read-out: GI50 range 12 colon. A general note: Alamar Blue is a resazurin reagent that responds to reducing activity.
In assay [4] the test system is Ovarian TICs, 2393A ovarian. Put plainly: Ovarian tumor-initiating cell growth inhibition (Alamar Blue). It counts as cell-based. The settings on record: 144 h, 6 days, read-out: GI50 range 2393A ovarian.
Excerpt: Materials and Methods: Non-tissue or tissure cultured treated T-75 flask and 96-well plates were purchased from VWR. Vitamin B-27 supplement, MEM NEAA (minimum essential medium non essential amino acids), sodium pyruvate, L-glutamine, N2 supplement, penicillin-streptomycin and fungizone/amphotericin B were obtained from Invitrogen. Lipid mixture, heparin and EGF were purchased from Sigma; bFGF from BD Biosciences. Colon tumor initiating cells (TICs) were routinely maintained using non-tissue cultured treated T-75 flasks in DMEM:F12 medium containing 0.2XB-27 supplement, 4 ug/ml heparin, 1XMEM NEAA, 1× sodium pyruvate, 1 mM glutamine, 10 pg/ul bFGF, 20 pg/ul EGF, 1×N2 supplement, lipid mixture, penicillin-streptomycin and fungizone/amphotericin B. Ovarian TICs were routinely maintained using tissue cultured treated T-75 flasks in DMEM:F12 medium containing 1XB-27 supplement, 4 ug/ml heparin, 20 pg/ul bFGF, 20 pg/ul EGF and penicillin-streptomycin.
Compounds described herein were dissolved in DMSO and further diluted in cell culture medium for GI50 determination. Colon TICs were trypsinized and seeded into non-tissue cultured treated 96-well plates with 4,000 cells/well. After 24 h, compound was added into the cell culture at different concentrations, and the final concentration of DMSO was adjusted to 0.1%. Cells were then cultured at 37° C. for 9 days. Ovarian TICs were trypsinized and seeded into tissue cultured treated 96-well plates with 1,000 cells/well. After 24 h, compound was added into the cell culture at different concentrations, and the final concentration of DMSO was adjusted to 0.1%. Cells were then cultured at 37° C. for 6 days. Cell viability was assessed by Alamar Blue assay: 10 ul of Alamar Blue was added into each well. After 4 hours incubation at 37° C., fluorescence was recorded at excitation 544 and emission 590. GI50 (Growth inhibition) was calculated using GraphPad Prism 4.0 software.
Assay [5] concerns MDA-MB-468 breast cancer cells. Put plainly: Cell growth inhibition, Sulforhodamine B assay, MDA-MB-468. The settings on record: Homo sapiens, 120 h, 5 days culture, SRB assay, read-out: Cell Line GI50 Range MDA-MB-468. It counts as cell-based.
Assay [6] concerns PA-1 ovarian cancer cells. As to the kind of experiment: Cell growth inhibition, Sulforhodamine B assay, PA-1. It counts as cell-based. The settings on record: 120 h, 5 days culture, SRB assay, read-out: Cell Line GI50 Range PA-1. (In general: The SRB assay estimates cell density from bound dye.)
Assay [7] deals with HCT116 colon cancer cells. Put plainly: Cell growth inhibition, Sulforhodamine B assay, HCT116. The settings on record: Homo sapiens, HCT-116, 120 h, 5 days culture, SRB assay, read-out: Cell Line GI50 Range HCT116. Type of assay: cell-based.
Description: Breast cancer cells (MDA-MB-231, MDA-MB-468), colon cancer cells (HCT116, HT29) and ovarian cancer cells (PA-1, OVCAR-3) were seeded (1000 to 4000 in 80 μl per well depending on the cell growth rate) into 96 well plates 24 hours before compound overlay. Compounds were prepared as 10 mM stock solutions in 100% DMSO which were diluted with DMEM (Dulbecco's Modified Eagle's Medium) cell growth Medium (Invitrogen, Burlington, ON, Canada) containing 10% FBS (Fetal Bovine Serum) to concentrations ranging from 50 nM to 250 μM. Aliquots (20 μl) from each concentration were overlaid to 80 μl of the pre-seeded cells in the 96 well plates to make final concentrations of 10 nM to 50 μM. The cells were cultured for 5 days before the Sulforhodamine B assay (SRB) was performed to determine the compound's cell growth inhibition activity.
Sulforhodamine B (purchased from Sigma, Oakville, ON, Canada) is a water-soluble dye that binds to the basic amino acids of the cellular proteins. Thus, colorimetric measurement of the bound dye provides an estimate of the total protein mass that is related to the cell number. the cells are fixed in situ by gently aspirating off the culture media and adding 50 μl ice cold 10% Trichloroacetic Acid (TCA) per well and incubate at 4° C. for 30-60 min, The plates are washed with water five times and allowed to air dry for 5 min. Addition of 50 μl 0.4% (w/v) SRB solution in 1% (v/v) acetic acid to each well and incubatation for 30 min at RT completes the staining reaction. Following staining, plates are washed four times with 1% acetic acid to remove unbound dye and then allowed to air dry for 5 min. The stain is solubilized with 100 μl of 10 mM Tris pH 10.5 per well. Absorbance is read at 570 nm.
The percentage (%) of relative growth inhibition was calculated by comparing to DMSO treated only cells (100%). […] The GI50 was calculated using GraphPad PRISM software (GraphPad Software, Inc., San Diego, Calif., USA).
The test system of assay [8] is MDA-MB-231 breast cancer cells. Put plainly: Cell growth inhibition, Sulforhodamine B assay, MDA-MB-231. Type of assay: cell-based. The following applies: Homo sapiens, 120 h, 5 days culture, SRB assay, read-out: Cell Line GI50 Range MDA-MB-231.
For assay [9], the system named is OVCAR-3 ovarian cancer cells. Put plainly: Cell growth inhibition, Sulforhodamine B assay, OVCAR-3. Type of assay: cell-based. The following applies: Homo sapiens, 120 h, 5 days culture, SRB assay, read-out: Cell Line GI50 Range OVCAR-3.
Assay [10] concerns the target T3, Aurora B (Homo sapiens, UniProt Q96GD4).
T3 construct: purchased Invitrogen PV3970
As to the kind of experiment: Aurora B inhibition assay (Z-Lyte). It counts as biochemical. The settings on record: 28 nM Aurora B, 128 μM ATP; read-out: IC50 Ranges Aurora B. On the procedure:
Aurora B inhibition was determined using the Z-Lyte assay kit from Invitrogen. The assay was performed using the recommended manufacturer's instructions with 128 μM ATP and 28 nM Aurora B (Invitrogen cat #PV3970). The % inhibition values were determined according to the manufacturer's directions and IC50 values were obtained using a non-linear 4 point logistic curve fit (XLfit4, IDBS)

Assay [11] deals with HT29 colon cancer cells. As to the kind of experiment: Cell growth inhibition, Sulforhodamine B assay, HT29. Type of assay: cell-based. The settings on record: Homo sapiens, HT-29, 120 h, 5 days culture, SRB assay, read-out: Cell Line GI50 Range HT29.

Molecules are shown by their SMILES.

T3 sequence (Q96GD4 whole entry): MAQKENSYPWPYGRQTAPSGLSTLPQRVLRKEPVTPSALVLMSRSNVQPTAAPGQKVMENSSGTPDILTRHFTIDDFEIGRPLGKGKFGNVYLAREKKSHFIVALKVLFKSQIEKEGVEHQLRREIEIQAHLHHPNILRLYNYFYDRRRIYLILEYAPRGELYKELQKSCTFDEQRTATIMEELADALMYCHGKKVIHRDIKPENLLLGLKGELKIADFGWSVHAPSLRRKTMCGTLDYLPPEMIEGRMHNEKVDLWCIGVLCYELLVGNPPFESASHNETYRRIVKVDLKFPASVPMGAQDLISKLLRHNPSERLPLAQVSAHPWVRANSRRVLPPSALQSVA

As to `CCOC(C(=O)Nc1ccc2[nH]nc(-c3ccc(OC4CCN(C)CC4)cc3)c2c1)c1ccccc1` (stereo not drawn) [Example A181, 2-ethoxy-N-(3-(4-((1-methylpiperidin-4-yl)oxy)phenyl)-1H-indazol-5-yl)-2-phenylacetamide], the IC50 in assay [1] and in assay [2] was at most 5 µM throughout. Moreover, the GI50 in [3], in assay [4], in assay [5], in assay [6], in assay [7] and in [8] was at most 5 µM throughout. Further, the GI50 in assay [9] was at most 5 µM.
With `O=C(Nc1ccc2[nH]nc(-c3ccc(OC4CCN(C5COC5)CC4)cc3)c2c1)C(c1ccsc1)N1CCCC1` (stereo not drawn) [Example A184, N-(3-(4-((1-(oxetan-3-yl)piperidin-4-yl)oxy)phenyl)-1H-indazol-5-yl)-2-(pyrrolidin-1-yl)-2-(thiophen-3-yl)acetamide], the IC50 in assay [1], in [2] and in assay [10] was at most 5 µM in each case. The GI50 in [3], in assay [4], in assay [5], in [6], in [7] and in assay [8] was at most 5 µM throughout.
Regarding `CO[C@@H](C(=O)Nc1ccc2[nH]nc(-c3ccc(OC4CCN(C=O)CC4)cc3)c2c1)c1ccccc1` [Example A169, (R)—N-(3-(4-((1-formylpiperidin-4-yl)oxy)phenyl)-1H-indazol-5-yl)-2-methoxy-2-phenylacetamide], the IC50 in assay [1] and in assay [2] was at most 5 µM throughout. Besides, the GI50 in assay [3], in assay [4], in [5], in assay [6], in [7] and in [11] was at most 5 µM throughout. Further, the GI50 in [9] lay within 5 to 20 µM.
Regarding `CC[C@H](NC(=O)c1ccc2[nH]nc(-c3ccc(OC4CCN(C5COC5)CC4)cc3)c2c1)c1ccccc1Cl` [Example A193, (S)—N-(1-(2-chlorophenyl)propyl)-3-(4-((1-(oxetan-3-yl)piperidin-4-yl)oxy)phenyl)-1H-indazole-5-carboxamide], the IC50 in [1], in assay [2] and in [10] was at most 5 µM each time. Besides, the GI50 in assay [3], in [4], in [5], in assay [6], in assay [7] and in assay [8] was at most 5 µM each time. In addition, the GI50 in [9] is at most 5 µM.
Take `O=C(NC(c1ccccn1)C1CC1)c1ccc2[nH]nc(-c3ccc(OC4CCN(C5COC5)CC4)cc3)c2c1` (stereo not drawn) [Example A171, N-(cyclopropyl(pyridin-2-yl)methyl)-3-(4-((1-(oxetan-3-yl)piperidin-4-yl)oxy)phenyl)-1H-indazole-5-carboxamide]: the IC50 in [1], in [2] and in [10] was at most 5 µM in each case. The GI50 in assay [3], in assay [4], in [5], in [6], in assay [7] and in [11] was at most 5 µM each time. Further, the GI50 in [9] is at most 5 µM.
As for `O=C(Nc1ccc2[nH]nc(-c3ccc(OC4CN(C5COC5)C4)cc3)c2c1)C(c1ccsc1)N1CCCC1` (stereo not drawn) [Example A189, N-(3-(4-((1-(oxetan-3-yl)azetidin-3-yl)oxy)phenyl)-1H-indazol-5-yl)-2-(pyrrolidin-1-yl)-2-(thiophen-3-yl)acetamide], the IC50 in assay [1], in assay [2] and in [10] was at most 5 µM throughout. For the same compound, the GI50 in assay [3] is at most 5 µM; in assay [4], at most 5 µM; in assay [5], at most 5 µM; in assay [6], at most 5 µM; in assay [7] it was at most 5 µM; in assay [8], 5 to 20 µM. The 50% growth inhibitory concentration (GI50) in assay [9] was 20 to 50 µM.
As for `CN1CCC(Oc2ccc(-c3n[nH]c4ccc(NC(=O)C(c5ccsc5)N5CCC5)cc34)cc2)CC1` (stereo not drawn) [Example A191, 2-(azetidin-1-yl)-N-(3-(4-((1-methylpiperidin-4-yl)oxy)phenyl)-1H-indazol-5-yl)-2-(thiophen-3-yl)acetamide], the IC50 in assay [1], in assay [2] and in assay [10] was at most 5 µM in each case. Moreover, the GI50 in assay [3], in assay [4], in assay [5], in assay [6], in assay [7] and in [8] was at most 5 µM each time. In assay [9], the GI50 is at most 5 µM.
Take `CN1CCC(Oc2ccc(-c3n[nH]c4ccc(NC(=O)C(OC5CCCC5)c5ccccc5)cc34)cc2)CC1` (stereo not drawn) [Example A183, 2-(cyclopentyloxy)-N-(3-(4-((1-methylpiperidin-4-yl)oxy)phenyl)-1H-indazol-5-yl)-2-phenylacetamide]: the IC50 in assay [1], in assay [2] and in [10] was at most 5 µM in each case. The GI50 in assay [3], in assay [4], in [5], in [6], in assay [7] and in assay [8] was at most 5 µM throughout. Further, the concentration for 50% growth inhibition (GI50) in assay [9] was at most 5 µM.
Take `CC(C)OC(C(=O)Nc1ccc2[nH]nc(-c3ccc(OC4CCN(C)CC4)cc3)c2c1)c1ccccc1` (stereo not drawn) [Example A187, 2-isopropoxy-N-(3-(4-((1-methylpiperidin-4-yl)oxy)phenyl)-1H-indazol-5-yl)-2-phenylacetamide]: the IC50 in [1], in assay [2] and in assay [10] was at most 5 µM in each case. Moreover, the GI50 in [3], in assay [4], in assay [5], in assay [6], in [7] and in assay [8] was at most 5 µM each time. In addition, the GI50 in assay [9] was at most 5 µM.

A word on the IC50: it is the point on the concentration scale where inhibition reaches its midpoint. A word on the GI50: it is the concentration giving 50% growth inhibition.
